Experimental data: patent publication US20130029991A1, “New Phenylsulfamoyl Benzamide Derivatives as Bradykinin Antagonists” (priority 2006, published 2013)

What was measured:
[1] = biological target: T1, human recombinant bradykinin B1 receptor (Homo sapiens, UniProt P46663); experiment: Human recombinant bradykinin B1 receptor binding; conditions: CHO cell membranes, [3H]-[Des-Arg10] Kallidin radioligand; read-out: B1 binding
T1 construct: host or cells: CHO cells
T1 sequence (P46663 1-353): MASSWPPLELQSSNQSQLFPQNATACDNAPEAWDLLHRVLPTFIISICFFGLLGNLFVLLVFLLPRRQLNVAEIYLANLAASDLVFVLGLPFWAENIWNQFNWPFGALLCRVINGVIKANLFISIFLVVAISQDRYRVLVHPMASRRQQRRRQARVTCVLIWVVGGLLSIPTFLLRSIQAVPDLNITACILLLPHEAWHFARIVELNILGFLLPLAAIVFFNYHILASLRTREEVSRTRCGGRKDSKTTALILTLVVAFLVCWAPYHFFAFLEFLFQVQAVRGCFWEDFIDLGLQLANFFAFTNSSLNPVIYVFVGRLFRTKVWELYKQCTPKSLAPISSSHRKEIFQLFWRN
Procedure: 1. Human Recombinant Bradykinin B1 Receptor Binding
Binding assays were carried out on human recombinant bradykinin) receptors (expressed in CHO cells) according to the Euroscreen Technical Data Sheet (Cat.No.:ES-091). 20 μg protein/tube was incubated with [3,4-prolyl-3,4-^3H(N)]-[Des-Arg^10] Kallidin as radioligand. Non specific binding was determined in the presence of 10 μM Lys-des-Arg^9-Bradykinin. The final incubation volume was 250 μl. Samples were incubated for 15 min. at 25° C. then were rapidly vacuum filtered through GF/B filters presoaked for at least 1 h in 0.5% PEI. Radioactivity was determined by liquid scintillation spectroscopy.

[2] = biological target: T2, recombinant human B1 receptors (Homo sapiens, UniProt P46663); experiment: Functional assay: antagonist potency by cytosolic calcium measurement (fluo-4, plate reader fluorimeter) in CHO-B1 cells; format: cell-based; conditions: CHO-B1 cells, inhibition of LysDABK (EC80)-evoked [Ca2+]i elevation; read-out: B1 func.
T2 construct: host or cells: CHO (CHO-B1)
T2 sequence (P46663 1-353): T1 sequence (P46663 1-353)
Procedure: Assessment of Antagonist Potency at B1 and B2 Receptors In Vitro by Measurement of Cytosolic Calcium Ion Concentration with a Plate Reader Fluorimeter in Cells Expressing Recombinant Human B1 or B2 Receptors
Chinese hamster ovary (CHO) cells stably expressing recombinant human B1 (CHO-B1, Euroscreen) or B2 (CHO-B2, Perkin-Elmer) receptors were cultured in Dulbecco's Modified Eagle's Medium (DMEM) containing 10% Fetal Calf Serum (FCS), 100 U/ml penicillin, 0.1 mg/ml streptomycin, 0.25 μg/ml amphotericin B, 1% Minimum Essential Medium Eagle (MEM), non essential amino acid solution, […], 1% pyruvate (for the B2 cell line). Cells were kept at 37° C. in a humidified incubator in an atmosphere of 5% CO2/95% air and were passaged 1:4 three times a week. Cells were plated at 1.5-2.5×10^4 cell/well on standard 96-well microplates, measurements of cytosolic calcium ion concentration ([Ca^2+]i) were carried out 1-2 days after cell plating.
Measurements of [Ca^2+]i were carried out on CHO-B1 and CHO-B2 cells stably expressing human B1 and B2 receptors, respectively. Cells were grown in standard 96-well microplates and before the measurement were loaded with a fluorescent Ca^2+-sensitive dye, fluo-4/AM (2 μM): after removing the culture medium the dye was added to the cells (dissolved in assay buffer: 145 mM NaCl, 5 mM KCl, 2 mM MgCl2, 2 mM CaCl2, 10 mM HEPES, 20 mM D-glucose, 2 mM probenecid, 100 μl/well) and cells were incubated at 37° C. in a humidified incubator in an atmosphere of 5% CO2/95% air for 40-120 min. To stop dye loading cells were washed twice with assay buffer. After washing, various concentrations of the test compounds (diluted in extracellular medium from a DMSO stock solution, final DMSO concentration was <0.1%) or buffer were added to each well depending on the experimental setup. After incubation at 37° C. for 20-25 min. baseline and agonist-evoked changes of [Ca^2+]i were measured column by column with a plate reader fluorimeter (Fluoroskan Ascent, Labsystems). Excitation and detection of emission was carried out from the bottom of the plate. Filters used for Fluo-4: excitation filter—485 nm, emission filter—538 nm. The whole measurement process was performed at 37° C. and was controlled by custom software Inhibitory potency of the test compounds was assessed by measuring the reduction in the agonist-evoked [Ca^2+]i-elevation in the presence of different concentrations of the compounds. The agonists were LysDABK for CHO-B1, and bradykinin for CHO-B2 cells. Agonists were applied at an EC80 concentration, the EC80-values were derived from daily determined dose-response curves. Fluorescence data were expressed as ΔF/F (fluorescence change normalized to baseline). All treatments on a single plate were measured in multiple wells. Data from all wells with the same treatment were averaged and the average values were used for analysis. Inhibitory potency of a compound at a single concentration point was expressed as percent inhibition of the control agonist response. Sigmoidal concentration-inhibition curves were fitted to the data (derived from at least three independent experiments) and IC50-values were determined as the concentration that produces half of the maximal inhibition caused by the compound.

Ki [1]: < 20 nM | IC50 [2]: < 20 nM
SMILES: O=C(CNC(=O)c1ccc(S(=O)(=O)Nc2ccccc2Oc2ccccc2)cc1)N[C@H]1CC[C@H](CCN2CCCC2)CC1 [Example 50, trans-4-(2-Phenoxy-phenylsulfamoyl)-N-{[4-(2-pyrrolidin-1-yl-ethyl)-cyclohexyl-carbamoyl]-methyl}-benzamide]
